Activity calls are given as the source filed them.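 Rule for the calls: active = averaged IC50 for reducing per-cell lipid droplet stain intensity under a set limit; inactive = the rest.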

The subject of the assay is AML12 mouse hepatocytes, BODIPY lipid droplet imaging. Kind of assay: lipid droplet accumulation inhibition in liver cells – imaging, AML12 mouse hepatocytes, BODIPY staining, SAR follow-up (AID 493092). Conditions: cells fed 100 µM oleate overnight.
For `CC(OC(=O)c1ccc(O)cc1)C(=O)Nc1nc(-c2ccccc2)cs1` (centres undefined), the IC50 – broadly, the concentration needed to halve the response being measured – is > 32000 nM (inactive).
Regarding `CC(OC(=O)c1ccc(F)cc1)C(=O)Nc1nc(-c2cccc([N+](=O)[O-])c2)cs1` (centres undefined), the IC50 is > 32000 nM (inactive).
For the molecule `CCOc1ccccc1NC(=O)CCCNC(=O)Cn1cnc2sc(C)c(C)c2c1=O`, the IC50 is 8670 nM (inactive).
As for `CCc1ccccc1NC(=O)CCC(=O)Nc1cc(OC)c(NC(=O)c2cccs2)cc1OC`, the 50% inhibitory concentration (IC50) was 538 nM.
Turning to `Cc1ccc(C(=O)OC(C)C(=O)Nc2nc(-c3cccc([N+](=O)[O-])c3)cs2)cc1` (centres undefined), the IC50 is 17000 nM (inactive).
For the molecule `COc1ccc(Br)cc1CN(C)C(=O)CNC(=O)Cc1cccc2ccccc12`, the IC50 is 2080 nM.
With `CCOc1ccccc1C(=O)NCC(=O)NCCCc1ccccc1`, the IC50 was > 32000 nM (inactive).
As to `CCOc1ccc(CCNC(=O)Nc2ccccc2C)cc1OCC`, the IC50 was 826 nM.
On to `CC1CC(C)CN(C(=O)c2ccc3c(c2NCCO)C(=O)c2ccccc2C3=O)C1` (centres undefined), for which the IC50 was 782 nM.
Take `Cc1cc(C)n(-c2ccc(C(=O)OC(C)C(=O)Nc3nc(-c4ccccc4)cs3)cc2)n1` (centres undefined): the IC50 is > 32000 nM (inactive).
In the case of `CC(OC(=O)c1ccc(S(=O)(=O)C(F)F)cc1)C(=O)Nc1nc(-c2ccccc2)cs1` (centres undefined) it was > 32000 nM (inactive).
As for `CCOc1ccc(C(=O)OC(C)C(=O)Nc2nc(-c3ccc(CC)cc3)cs2)cc1OCC` (centres undefined), the IC50 is under 62.5 nM.
The figure for `CCOc1ccc(CCNC(=O)c2cc(-c3ccccc3)c(N3CCOCC3)s2)cc1OCC` is under 62.5 nM; for `CCCc1cc(N2CCOCC2)n2nc(C)c(-c3ccccc3)c2n1` it is 168 nM; for `CCOc1ccc(CCNC(=O)Cn2nc(C)c3c(C)n(-c4ccccc4)nc3c2=O)cc1OCC` it is 336 nM.
Take `COc1cccc(NC(=O)CCC(=O)Nc2cc(OC)c(NC(=O)c3cccs3)cc2OC)c1`: the concentration for half-maximal inhibition (IC50) was 197 nM.
As to `CCCc1ccc(-c2csc(NC(=O)Cc3cccs3)n2)cc1`, the concentration for half-maximal inhibition (IC50) is 510 nM.
`CCOc1ccc(CCNC(=O)CCC(=O)N2CCSc3ccccc32)cc1OCC`: the IC50 is 81.7 nM.
`CCOc1ccccc1NC(=O)CCC(=O)Nc1ccccc1OCC`: the IC50 was 1540 nM.

(Values after PubChem BioAssay AID493092 (Sanford-Burnham Center for Chemical Genomics, 2011).)
